{"source": "patent US20090004360A1", "about": "“Taste Potentiator Compositions in Oral Delivery Systems” (CADBURY ADAMS USA LLC, priority 2007, published 2009)", "origin": "cited, not measured here", "key": {"[1]": {"experiment": "not given", "remark": "listed apart in the source"}}, "note": "Peptide text beside a SMILES is read from it."}
{"compound": "COC(=O)[C@H](Cc1ccccc1)NC(=O)[C@@H](N)CC(=O)O", "note": "[aspartame, L-aspartyl-L-phenylalanine methyl ester] (HELM PEPTIDE1{D.F.[CO[*:1]]}$$$$V2.0)", "values": [{"measurement": "sweetness relative to sucrose", "setting": "recognized value, 0.05 g in 100 ml isosweet to 10 g sucrose in 100 ml", "result": 200, "unit": "times"}]}
{"compound": "O=C(O)c1cccc(O)c1", "note": "[Example 3-HB, 3-hydroxybenzoic acid]", "values": [{"measurement": "effect on sweetness of sucrose, aspartame and saccharin", "setting": "[1]; pH 2.0 to 5.5, European Patent No. 0132444 and U.S. Pat. No. 4,627,987", "result": "enhance sweetness"}]}
{"compound": "O=C(O)c1ccc(O)cc1O", "note": "[2,4-DHB, 2,4-Dihydroxybenzoic acid]", "values": [{"measurement": "effect on sweetness of a sucrose solution", "setting": "[1]; 0.2% added to a 5% sucrose solution, Canadian Patent No. 1208966", "result": "increase in sweetness"}, {"measurement": "effect on the sweetness intensity of both sucralose and aspartame", "setting": "[1]; FIGS. 1 and 2 and Tables 1 and 2 of U.S. Pat. No. 6,461,658", "result": "slightly inhibitory effect"}, {"measurement": "effect on sweetness of aspartame", "setting": "[1]; used with aspartame, WO99/15032", "result": "increase sweetness synergistically"}, {"measurement": "length of time during which sucralose sweetness is perceived", "setting": "[1]; with sucralose, U.S. Pat. No. 6,461,658", "result": "significantly reducing the length of time"}]}
{"compound": "OCC(O)CO", "note": "[Glycerin]", "values": [{"measurement": "sweetness relative to cane sugar", "setting": "in vivo", "result": "about 60%"}]}
